Results reported in PMC10568017, “A quest for the stereo-electronic requirements for selective agonism for the neurotrophin receptors TrkA and TrkB in 17-spirocyclic-dehydroepiandrosterone derivatives” (Frontiers in Molecular Neuroscience, 2023).

Columns and labels:
PC12 cells = assay: CellTox assay, survival of PC12 cells under serum deprivation; type: cell-based; conditions: compound 500 nM, 24 h, after 4 h serum starvation; NGF 100 ng/mL as control (Figure 9)
[1] = system: NIH-3T3 TrkB-expressing cell line; assay: CellTox Green cytotoxicity assay in NIH-3T3 cells stable transfected with TrkB under serum deprivation; type: cell-based; conditions: compound 1 μM, 24 h, after 24 h serum starvation; BDNF 500 ng/mL as control
Summary of the method: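 TrkB-transfected NIH-3T3 cells were serum-starved for 24 h, then exposed 24 h to compounds at 1 μM or BDNF 500 ng/mL as control. Dead cells stained with CellTox Green and total cells with Hoechst 33342, imaged by microscopy. CellTox-positive counts normalised to total cells per image.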

CYP2C9 = biological target: T1, CYP2C9 (Homo sapiens, UniProt P11712); assay: Isozyme-specific CYP450 inhibition, CYP2C9; type: in vitro ADME; conditions: 1 μM, 60 min, recombinant human CYP450 (Baculosomes)
T1 construct: purchased Thermo Fisher Scientific; host or cells: Baculosomes
T1 sequence (P11712 whole entry): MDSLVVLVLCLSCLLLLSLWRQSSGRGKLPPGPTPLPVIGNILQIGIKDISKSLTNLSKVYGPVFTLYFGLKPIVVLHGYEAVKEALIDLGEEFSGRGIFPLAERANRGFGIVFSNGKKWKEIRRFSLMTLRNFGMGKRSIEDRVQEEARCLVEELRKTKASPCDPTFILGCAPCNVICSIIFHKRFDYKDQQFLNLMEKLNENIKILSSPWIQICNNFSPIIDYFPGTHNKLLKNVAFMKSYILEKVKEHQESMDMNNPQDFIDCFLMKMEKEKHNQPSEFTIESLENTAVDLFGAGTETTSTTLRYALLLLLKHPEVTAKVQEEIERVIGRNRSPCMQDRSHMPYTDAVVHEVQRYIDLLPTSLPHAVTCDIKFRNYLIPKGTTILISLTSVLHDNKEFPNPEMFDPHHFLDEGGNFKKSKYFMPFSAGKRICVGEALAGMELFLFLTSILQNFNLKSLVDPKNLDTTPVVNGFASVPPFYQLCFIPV
Description: Human cytochrome P450 (CYP450) isoenzymes were expressed in Baculosomes®, purchased from Thermo Fisher Scientific (Waltham, MA, USA). All reagents were handled and prepared according to the manufacturer's protocol. Test compounds were assessed at 1 μM for their effects on CYP1A2, CYP2A6, CYP2C9, CYP2C19, CYP2D6, and CYP3A4. Approximately 1 μM was selected based on our ADMET standard operating procedures and protocols also published previously (Rogdakis et al., [2022]; Yilmaz et al., [2022]). CYP450-enzymatic activity was determined based on the kinetic model for each CYP450 isoform (Cohen et al., [2003]; Veith et al., [2009]). Reactions took place in triplicates at 20°C. For this, NADP^+ (10 mM in 100 mM potassium phosphate, pH 8.0) was converted into NADPH by the regeneration system present (glucose-6-phosphate at 333 mM and glucose-6-phosphate-dehydrogenase at 30 U/mL in 100 mM potassium phosphate, pH 8.0). Following the addition of the fluorescent substrate, signal monitoring over time took place immediately (<2 min) at suitable excitation and emission wavelengths (Agilent BioTek Lionheart FX). CYP450 inhibition (%) was determined based on the reaction rates (fluorescence intensity changes per unit time). In total, n = 60 measurements […] were acquired (t = 60 min).
% Inhibition=(1-X/A)×100%
X is the rate observed in the presence of the test compound.
A is the rate observed in the presence of the negative (solvent, DMSO) control.

## C[C@]12CC[C@H](O)CC1=CC[C@@H]1[C@@H]2CC[C@@]2(C)[C@H]1CC[C@@]21CC=C(Cn2cc(Cc3ccccc3)nn2)CO1 [ENT-A055, (3S,17R)-5′-[(4-benzyl-1H-1,2,3-triazol-1-yl)methyl]-3′,6′-dihydrospiro[5-androstene-17,2′-pyran]-3-ol]
PC12 cells
  protection of PC12 cells from serum deprivation-induced cell death (CellTox): without showing any antiapoptotic activity in PC12 cells
[1]
  protection of NIH-3T3-TrkB cells from serum deprivation-induced cell death (CellTox): significantly reduce cell death levels compared to the serum-free control, comparable to the BDNF action
CYP2C9
  inhibition for CYP2C9: moderate-to-strong inhibition
